Results from patent US7368453B2, “Quinazolinone compounds with reduced bioaccumulation” (Chiron Corporation, priority 2003, dated 2008).
Read-outs that look alike come from different tables or passages of the source.

Assay: Tissue half-life (t1/2) and Cmax in plasma, brain, kidney and liver after oral administration to CD-1 mice
Format: in vivo, mouse
Settings: for half-life: male, mouse
Method: In vivo studies were conducted to observe the effect of the compounds of the invention in the subject animal. Male CD-1 mice, body weight of 20 grams at arrival, were used in these studies. Mice were given 30 mg/kg of compound in HPMC/Tween solution or suspension via oral gavage. Plasma, brain, and liver samples were collected at time periods of 1, 2, 4, 8, and 24 hours post dosing. One mouse was used per time point. Thus, a total of 5 mice were used for each compound tested. For sample collection, mice were euthanized with CO2. Blood samples were taken by cardiac puncture and kept on ice. Brain and liver samples were collected immediately after bleeding and the samples were kept on dry ice. For calculation of tissue half-lives (t1/2s), the terminal rate constant k was estimated by the absolute value of the slope of a log-linear regression of the terminal phase of the tissue concentration-time profile. The tissue half-life t1/2 is ln(2)/k.
The following table includes t1/2 data for plasma, brain, kidney, and liver obtained after oral administration.
Tissue Half-Life Data for Various Quinazolinone Compounds (PO)

[1] = kidney t1/2, 30 mg/kg oral gavage (PO), read-out: Half-Lives (h) Kidney (converted)
[2] = plasma t1/2, 30 mg/kg oral gavage (PO), read-out: Half-Lives (h) Plasma (converted)
[3] = brain t1/2, 30 mg/kg oral gavage (PO), read-out: Half-Lives (h) Brain (converted)
[4] = liver t1/2, 30 mg/kg oral gavage (PO), read-out: Half-Lives (h) Liver (converted)

| Compound | half-life [1] [h] | half-life [2] [h] | Half-Lives (h) Brain (brain t1/2, 30 mg/kg oral gavage (PO)) [h] | Half-Lives (h) Liver (liver t1/2, 30 mg/kg oral gavage (PO)) [h] | Half-Lives (h) Plasma (plasma t1/2, 30 mg/kg oral gavage (PO)) [h] | half-life [3] [h] | half-life [4] [h] |
| --- | --- | --- | --- | --- | --- | --- | --- |
| COc1ccc(CCn2cnc3cc(N/C(=N/[C@H]4C[C@@H]5C[C@H]([C@@H]4C)C5(C)C)N4CCC[C@H]4CO)ccc3c2=O)c(F)c1 [Example 281, (2S)-N-(3-{2-[2-fluoro-(methyloxy)phenyl]ethyl]-4-oxo-3,4-dihydro-7-quinazolinyl)-2-(hydroxymethyl)-N′-[(1R,2S,3S,5S)-2,6,6-trimethylbicyclo[3.1.1]hept-3-yl]-1-pyrrolidinecarboximidamide] | 6.5 | 5.3 |  |  |  |  |  |
| (3S)-N-{3-[2-(4-chlorophenyl)ethyl]-4-oxo-2-piperidin-3-yl-3,4-dihydroquinazolin-7-yl}-3-methyl-5-oxo-N′-[(1S,2S,3S,5R)-2,6,6-trimethylbicyclo[3.1.1]hept-3-yl]piperazine-1-carboximdamide [Example 241] |  |  | 51 | 17 | 21 |  |  |
| C[C@@H]1[C@@H](N=C(Nc2ccc3c(=O)n(CCc4ccc(Cl)cc4)c(-c4cnccn4)nc3c2)N2CC(=O)N[C@@H](C)C2)C[C@H]2C[C@@H]1C2(C)C [Example 222, (3S)-N-{3-[2-(4-chlorophenyl)ethyl]-4-oxo-2-pyrazin-2-yl-3,4-dihydroquinazolin-7-yl}-3-methyl-5-oxo-N′-[(1S,2S,3S,5R)-2,6,6-trimethylbicyclo[3.1.1]hept-3-yl]piperazine-1-carboximidamide] |  | 1.1 |  |  |  | 8 | 2.7 |
| C[C@@H]1[C@@H](N=C(Nc2ccc3c(=O)n(CCc4ccc(F)cc4)c(-c4cnccn4)nc3c2)N2CC(=O)N[C@@H](C)C2)C[C@H]2C[C@@H]1C2(C)C [Example 218, (3S)-N-{3-[2-(4-fluorophenyl)ethyl]-4-oxo-2-pyrazin-2-yl-3,4-dihydroquinazolin-7-yl}-3-methyl-5-oxo-N′-[(1S,2S,3S,5R)-2,6,6-trimethylbicyclo[3.1.1]hept-3-yl]piperazine-1-carboximidamide] |  | 2.2 |  |  |  |  | 3.9 |
| COc1ccc(CCn2c(-c3cccnc3)nc3cc(N/C(=N/[C@H]4C[C@@H]5C[C@H]([C@@H]4C)C5(C)C)N4C[C@@H](C)N(O)[C@@H](C)C4)ccc3c2=O)c(F)c1 [Example 296, (3R,5S)-N-[3-{2-[2-fluoro-4-(methyloxy)phenyl]ethyl}-4-oxo-2-(3-pyridinyl)-3,4-dihydro-7-quinazolinyl]-4-hydroxy-3,5-dimethyl-N′-[(1R,2S,3S,5S)-2,6,6-trimethylbicyclo[3.1.1]hept-3-yl]-1-piperazinecarboximidamide] | 3.3 | 4.9 |  |  |  |  | 3.2 |
| C[C@@H]1[C@@H](/N=C(/Nc2ccc3c(=O)n(CCc4ccc(Cl)cc4Cl)cnc3c2)N2CC(O)C2)C[C@@H]2C[C@H]1C2(C)C [Example 337, N-{3-[2-(2,4-dichlorophenyl)ethyl]-4-oxo-3,4-dihydro-7-quinazolinyl}-3-hydroxy-N′-[(1R,2S,3S,5S)-2,6,6-trimethylbicyclo[3.1.1]hept-3-yl]-1-azetidinecarboximidamide] | 5.1 | 18.9 |  |  |  |  | 4.6 |
| COc1ccc(CCn2c(-c3cccnc3)nc3cc(NC(=N[C@H]4C[C@H]5C[C@@H]([C@@H]4C)C5(C)C)N4CCN(O)[C@@H](C)C4)ccc3c2=O)c(F)c1 [Example 245, (3S)-N-{3[2(2-fluoro-4-methoxyphenyl)ethyl]-4-oxo-2-pyridin-3-yl-3,4-dihydroquinazolin-7-yl}-4-hydroxy-3-methyl-N′-[(1S,2S,3S,5R)-2,6,6-trimethylbicyclo[3.1.1]hept-3-yl]piperazine-1-carboximidamide] | 1.7 | 2.2 |  |  |  | 3.1 | 5.2 |
